Biological target: T1, human src SH2 domain (Homo sapiens, UniProt P12931)
T1 construct: made in house; host or cells: E. coli AR120
Assay: ELISA-based SH2 domain / pY peptide binding assay, src SH2 domain
Protocol: The inhibitory activity of compounds at the different human SH2 domains was determined in vitro using SH2 domains expressed as fusion proteins in E. coli. The SH2 domains used herein were the human forms of the src SH2 domain, Grb2 SH2 domain, lck SH2 domain, fyn SH2 domain, SH-PTP2 SH2 domain, p85 SH2 domain and hcp SH2 domain.
The fusion proteins containing the src, lck and hcp SH2 domains were expressed as the general sequence: DET1-DET2-spacer-ek-SH2, where DET1, DET2, spacer, ek and SH2 are as described below. DET1 ("defined epitope tag 1") (SEQ ID NO: 1) is an 11 amino acid sequence found in the Human Immunodeficiency Virus Type 1 (HIV-1) envelope protein gp120 (or gp160). Monoclonal antibodies to various epitopes of HIV-1 gp120 (or gp 160) are known in the art, see, for example U.S. Patent 5,166,050. One preferred example is monoclonal antibody 178.1 (see, e.g., Thiriart et al., J. Immunol., 143:1832-1836 (1989)), which was prepared by immunization of mice with a yeast-expressed HIV-1 gp160 molecule from strain BH10 (Ratner et al., Nature, 313:277-284 (1985)). This tag was used for detection of expression (by Western blot), for purification of the protein (by affinity chromatography), and for configuring assays in which the fusion protein was captured or immobilized using the 178.1 antibody. DET2 is a hexa-histidine sequence tag (SEQ ID NO: 2) which binds to nickel-containing resins and was used for purification purposes. Spacer (SEQ ID NO: 3) was utilized to design a BamH1 restriction site at the indicated position of the construct. The term -ek-refers to a recognition sequence (SEQ ID NO: 4) for the enterokinase protease which provides for the optional removal of the tags from the SH2 domain, thus producing an SH2 domain that contains no extraneous amino acids. SH2 domains which contain no extraneous amino acids are preferable to tagged protein for crystallography studies. SH2 refers to the SH2 domains of different proteins.
Procedure 2: Cloning, expression and purification of human src SH2 domain containing tags and an enterokinase proteolytic cleavage site (DET1-DET2-spacer-ek-src SH2).
A DNA sequence encoding protein ek-src SH2 was PCR amplified from a cDNA clone containing the human src gene (c-src SH2 DNA sequence identical to that described in Takeya,T. and Hanafusa, H, 1983 Cell 32:881-890) using the following primers: [formula]
The PCR product was digested with BamHI and XbaI, followed by isolation of the digested fragment on an agarose gel. The fragment was ligated into BamHI-XbaI-digested expression vector containing the tagged chicken src gene DET1-DET2-spacer-SH2 described in Procedure 1 above. In that vector, the BamHI site is located between the coding regions for DET2 and SH2, and the XbaI site is located after the 3' end of the SH2 coding region. The ligation reaction was used to transform E. coli MM294cI^+. The construct DET1-DET2-spacer-ek-src SH2 was confirmed by DNA sequencing (SEQ ID NO: 5) and induced in E. coli strain AR120 as described in Procedure 1 above. A Coomassie-Blue-stained, Western-blot-positive induced protein band with an apparent molecular weight of 16,000 was observed after nalidixic acid induction.
Cells were lysed at neutral pH by sonication in the presance of lysozyme. After centrifugation, the soluble extract was chromatographed on a Ni^++NTA column. After washing the column with equilibration buffer (Tris buffer pH 8 containing 0.5 M Nacl) and the same buffer containing 15 mM imidazole, the protein was eluted in highly purified form with 25 mM imidazole in equilibration buffer.
The binding assays for the SH2 domains and pY peptides were performed in an ELISA-based 96 well plate assay. […]

T1 sequence (P12931 148-251): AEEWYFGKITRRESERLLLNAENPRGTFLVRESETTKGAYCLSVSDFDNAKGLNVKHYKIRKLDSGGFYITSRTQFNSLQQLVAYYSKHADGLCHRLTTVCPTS

Ki (Ki calculated from IC50 with the expanded equation): 13 µM
IC50 (inhibition of binding of 0.1 uM biotinylated pY peptide to SH2 domain fusion protein): 20 µM
SMILES: CCCCCCNC(=O)[C@H]1CC[C@H](CNC(=O)c2ccc(C(=O)c3ccc(C(=O)O)cc3)cc2)CC1 [Compound 6, 4-carboxy-benzophenone-4-carboxamido-trans-4-methyl-cyclohexyl-N-hexyl carboxamide]

Source: EP0728482A2, “Use of hcp specific compounds to enhance erythropoiesis” (SMITHKLINE BEECHAM CORPORATION, priority 1995, dated 1996)
